Source: patent US8105630B2, “Composition containing medicine extremely slightly soluble in water being excellent in eluting property and method for preparation thereof” (Kowa Co., Ltd., priority 2003, dated 2012)
In brackets after ≈: the same amount, converted by molar mass.

Experiment: physchem
Settings: 25 °C, water

Compound	solubility [µg/mL]
CSc1ccc(-c2nn(Cc3ccccc3)c(=O)cc2-c2ccc(Cl)cc2)cc1 [Compound A, 2-benzyl-5-(4-chlorophenyl)-6-[4-(methylthio)phenyl]-2H-pyridazin-3-one]	0.01 (≈ 0.0239 µM)
CC(C)CCC[C@@H](C)[C@H]1CC[C@H]2[C@@H]3CC=C4C[C@@H](O)CC[C@]4(C)[C@H]3CC[C@]12C [cholesterol]	0.1 (≈ 0.259 µM)
O=C(Nc1cccc2c(=O)cc(-c3nnn[nH]3)oc12)c1ccc(OCCCCc2ccccc2)cc1 [pranlukast]	0.9 (≈ 1.87 µM)
CCCCC(=O)O[C@]1(C(=O)COC(C)=O)CC[C@H]2[C@@H]3CCC4=CC(=O)C=C[C@]4(C)[C@H]3[C@@H](O)C[C@@]21C [prednisolone valerate acetate]	4
